Test results from patent publication US20030149088A1, “HIV treatment” (priority 2000, published 2003).
“And” between values parts separate entries of the source, which are not always exact repeats. Identical values can stand only once.

How the values were obtained:
[1] = test system: HIV; assay: microbe, parasite or virus in culture; assay type: cell-based; conditions: in vitro acute model
[2] = test system: HIV virus, ROJO in PBMC; assay: Reverse transcriptase activity against ROJO in PBMC; assay type: cell-based; set-up: Reverse Transcriptase Activity, Sample 1-3 / Reverse Transcriptase Activity, Mean: unit not given here; conditions: for Reverse Transcriptase Activity, Sample 1-3: individual samples
[3] = test system: Chronic HIV-1 infected cells U1; assay: Chronic HIV study, HIV replication in monocytes (U1 cells); assay type: cell-based
Description: (§1) Chronic HIV-1 infected cells U1 were derived from an acute HIV-1 infection of the promonocytic cell line, U937. The chronic HIV-1 infected cells, ACH-2 were derived from an acute HIV-1 infection of the T cell line, A3.01.
(§2) These cells were cultured in medium and the phorbol ester, PMA. PMA causes the cells (both U1 and ACH-2) to be activated and not divide but it also causes the U-1 cells to differentiate. […] Cell viability was measured when these cell lines were treated with the test compound.
(§3) Both cell lines constituitively produce a small amount of HIV-1. ACH-2 cell lines tend to produce more HIV-1 than U1 cells as shown by p-24 ELISA. When either cell line is cultured in the presence of PMA there is an increase in the quantity of HIV-1 produced as measured by the p-24 antigen ELISA.
(§4) In addition, the number of […] positive HIV mRNA expressing cells per microscopic field is measured. Comparisons can be made from these numbers since the same number of cells were adhered to the glass slides for each drug concentration (10×10^6 cells/ml).

[4] = test system: PBMC; assay: Toxicity values, XTT-based evaluation (cell titer O.D.), ROJO in PBMC; conditions: for Toxicity Values (Cell titer), Sample 1-3: individual samples
[5] = test system: chronic HIV-1 infected cells, ACH-2; assay: Chronic HIV study, T-cell HIV replication (ACH-2 cells); assay type: cell-based; conditions: increase, not suppression
Description: as §1, §2, §3, §4

`c1ccc2[nH]c(-c3cscn3)nc2c1` [2-(4-thiazolyl)-1H-benzimidazole] showed an inhibition at 60 µg/mL ([1]; Human immunodeficiency virus 1, at 60 μg/ml, read-out: inhibited viral replication) of 98%.
In the case of `Cc1cn([C@H]2C[C@H](N=[N+]=[N-])[C@@H](CO)O2)c(=O)[nH]c1=O` [AZT, reference compound], the “Reverse Transcriptase Activity, % virus control” value ([2]; 0.0004 μg/ml) is reported as 101.5%, the “Reverse Transcriptase Activity, Sample 1-3” value ([2]; 0.0004 μg/ml) is reported as 1.043 and 0.966 and 1.143 and the “Reverse Transcriptase Activity, % virus control” value ([2]; 0.0013 μg/ml) is reported as 101.4%. For the same compound, the “Reverse Transcriptase Activity, % virus control” value ([2]; 0.004 μg/ml) was 98.5%, the “Reverse Transcriptase Activity, Mean” value ([2]; 0.004 μg/ml) was 1.019 and the “Reverse Transcriptase Activity, Sample 1-3” value ([2]; 0.004 μg/ml) was 1.005 and 1.004 and 1.048. The “Reverse Transcriptase Activity, % virus control” value ([2]; 0.013 μg/ml) was 101.2%, the “Reverse Transcriptase Activity, Sample 1-3” value ([2]; 0.013 μg/ml) was 1.024 and 1.061 and 1.056 and the “Reverse Transcriptase Activity, % virus control” value ([2]; 0.04 μg/ml) was 0.7%. For the same compound, the “Reverse Transcriptase Activity, Mean” value ([2]; 0.04 μg/ml) was 168, the “Reverse Transcriptase Activity, Sample 1-3” value ([2]; 0.04 μg/ml) was 176 and 108 and 220 and the “Reverse Transcriptase Activity, % virus control” value ([2]; 0.13 μg/ml) was 0.5%. For the same compound, the “Reverse Transcriptase Activity, Mean” value ([2]; 0.13 μg/ml) was 110.7, the “Reverse Transcriptase Activity, Sample 1-3” value ([2]; 0.13 μg/ml) was 108 and 168 and 56 and the “Reverse Transcriptase Activity, % virus control” value ([2]; 0.4 μg/ml) was 0.7%. The “Reverse Transcriptase Activity, Mean” value ([2]; 0.4 μg/ml) was 172, the “Reverse Transcriptase Activity, Sample 1-3” value ([2]; 0.4 μg/ml) was 340 and 80 and 96 and the “Reverse Transcriptase Activity, % virus control” value ([2]; 1.3 μg/ml) was “.04%”. The “Reverse Transcriptase Activity, Mean” value ([2]; 1.3 μg/ml) was 93.3, the “Reverse Transcriptase Activity, Sample 1-3” value ([2]; 1.3 μg/ml) was 68 and 120 and 92 and the “Reverse Transcriptase Activity, % virus control” value ([2]; 4 μg/ml) was 0.4%. The “Reverse Transcriptase Activity, Mean” value ([2]; 4 μg/ml) was 98.7, the “Reverse Transcriptase Activity, Sample 1-3” value ([2]; 4 μg/ml) was 108 and 104 and 84 and the inhibited viral replication ([1]; at 1 μg/ml) was 98%.
`COC(=O)Nc1nc2ccccc2[nH]1` [Carbendazim, 2-(methoxycarbonylamino)benzimidazole] was tested, and the “suppressed replication in the HIV monocytes” value [3] was 9%, the “Toxicity Values (Cell titer), Mean” value ([4]; 0.01 μg/ml) was 1.138 O.D. @ 490/650 nm and the “Toxicity Values, % cell control” value ([4]; 0.01 μg/ml) was 109.9%. The “Toxicity Values (Cell titer), Sample 1-3” value ([4]; 0.01 μg/ml) was 1.115 O.D. @ 490/650 nm and 1.180 O.D. @ 490/650 nm and 1.118 O.D. @ 490/650 nm, the “Toxicity Values (Cell titer), Mean” value ([4]; 0.032 μg/ml) was 1.182 O.D. @ 490/650 nm and the “Toxicity Values, % cell control” value ([4]; 0.032 μg/ml) was 114.2%. For the same compound, the “Toxicity Values (Cell titer), Sample 1-3” value ([4]; 0.032 μg/ml) was 1.143 O.D. @ 490/650 nm and 1.198 O.D. @ 490/650 nm and 1.204 O.D. @ 490/650 nm, the “Toxicity Values (Cell titer), Mean” value ([4]; 0.1 μg/ml) was 1.157 O.D. @ 490/650 nm and the “Toxicity Values, % cell control” value ([4]; 0.1 μg/ml) was 111.8%. For the same compound, the “Toxicity Values (Cell titer), Sample 1-3” value ([4]; 0.1 μg/ml) was 1.145 O.D. @ 490/650 nm and 1.080 O.D. @ 490/650 nm and 1.246 O.D. @ 490/650 nm, the “Toxicity Values (Cell titer), Mean” value ([4]; 0.32 μg/ml) was 1.049 O.D. @ 490/650 nm and the “Toxicity Values, % cell control” value ([4]; 0.32 μg/ml) was 101.4%. The “Toxicity Values (Cell titer), Sample 1-3” value ([4]; 0.32 μg/ml) was 1.031 O.D. @ 490/650 nm and 1.050 O.D. @ 490/650 nm and 1.067 O.D. @ 490/650 nm, the “Toxicity Values (Cell titer), Mean” value ([4]; 1 μg/ml) was 1.004 O.D. @ 490/650 nm and the “Toxicity Values, % cell control” value ([4]; 1 μg/ml) was 97.0%. The “Toxicity Values (Cell titer), Sample 1-3” value ([4]; 1 μg/ml) was 1.019 O.D. @ 490/650 nm and 1.003 O.D. @ 490/650 nm and 0.991 O.D. @ 490/650 nm, the “Toxicity Values (Cell titer), Mean” value ([4]; 3.2 μg/ml) was 0.992 O.D. @ 490/650 nm and the “Toxicity Values, % cell control” value ([4]; 3.2 μg/ml) was 95.8%. The “Toxicity Values (Cell titer), Sample 1-3” value ([4]; 3.2 μg/ml) was 1.013 O.D. @ 490/650 nm and 1.003 O.D. @ 490/650 nm and 0.959 O.D. @ 490/650 nm, the “Toxicity Values (Cell titer), Mean” value ([4]; 10 μg/ml) was 0.944 O.D. @ 490/650 nm and the “Toxicity Values, % cell control” value ([4]; 10 μg/ml) was 91.2%. For the same compound, the “Toxicity Values (Cell titer), Sample 1-3” value ([4]; 10 μg/ml) was 1.001 O.D. @ 490/650 nm and 0.858 O.D. @ 490/650 nm and 0.973 O.D. @ 490/650 nm, the “Toxicity Values (Cell titer), Mean” value ([4]; 32 μg/ml) was 0.845 O.D. @ 490/650 nm and the “Toxicity Values, % cell control” value ([4]; 32 μg/ml) was 81.6%. The “Toxicity Values (Cell titer), Sample 1-3” value ([4]; 32 μg/ml) was 0.864 O.D. @ 490/650 nm and 0.835 O.D. @ 490/650 nm and 0.836 O.D. @ 490/650 nm, the “Toxicity Values (Cell titer), Mean” value ([4]; 100 μg/ml) was 0.807 O.D. @ 490/650 nm and the “Toxicity Values, % cell control” value ([4]; 100 μg/ml) was 77.9%. The “Toxicity Values (Cell titer), Sample 1-3” value ([4]; 100 μg/ml) was 0.839 O.D. @ 490/650 nm and 0.782 O.D. @ 490/650 nm and 0.799 O.D. @ 490/650 nm, the “T-cell HIV replication was increased” value [5] was 44% and the “Reverse Transcriptase Activity, % virus control” value ([2]; 0.01 μg/ml) was 110.4%. For the same compound, the “Reverse Transcriptase Activity, Mean” value ([2]; 0.01 μg/ml) was 26107, the “Reverse Transcriptase Activity, Sample 1-3” value ([2]; 0.01 μg/ml) was 24174 and 32124 and 22024 and the “Reverse Transcriptase Activity, % virus control” value ([2]; 0.032 μg/ml) was 96.6%. For the same compound, the “Reverse Transcriptase Activity, Mean” value ([2]; 0.032 μg/ml) was 22851, the “Reverse Transcriptase Activity, Sample 1-3” value ([2]; 0.032 μg/ml) was 23225 and 17108 and 19000 and the “Reverse Transcriptase Activity, % virus control” value ([2]; 0.1 μg/ml) was 74.1%. For the same compound, the “Reverse Transcriptase Activity, Mean” value ([2]; 0.1 μg/ml) was 17513, the “Reverse Transcriptase Activity, Sample 1-3” value ([2]; 0.1 μg/ml) was 1394.0 and 16747 and 12569 and the “Reverse Transcriptase Activity, % virus control” value ([2]; 0.32 μg/ml) was 47.1%. For the same compound, the “Reverse Transcriptase Activity, Mean” value ([2]; 0.32 μg/ml) was 11143, the “Reverse Transcriptase Activity, Sample 1-3” value ([2]; 0.32 μg/ml) was 200 and 8787 and 11249 and the “Reverse Transcriptase Activity, % virus control” value ([2]; 1 μg/ml) was 3.7%. For the same compound, the “Reverse Transcriptase Activity, Mean” value ([2]; 1 μg/ml) was 885.3, the “Reverse Transcriptase Activity, Sample 1-3” value ([2]; 1 μg/ml) was 1394 and 685.0 and 577.0 and the “Reverse Transcriptase Activity, % virus control” value ([2]; 3.2 μg/ml) was 0.6%. For the same compound, the “Reverse Transcriptase Activity, Mean” value ([2]; 3.2 μg/ml) was 138.7, the “Reverse Transcriptase Activity, Sample 1-3” value ([2]; 3.2 μg/ml) was 200 and 100 and 116 and the “Reverse Transcriptase Activity, % virus control” value ([2]; 10 μg/ml) was 0.6%. The “Reverse Transcriptase Activity, Mean” value ([2]; 10 μg/ml) was 153.3, the “Reverse Transcriptase Activity, Sample 1-3” value ([2]; 10 μg/ml) was 136 and 216 and 108 and the “Reverse Transcriptase Activity, % virus control” value ([2]; 32 μg/ml) was 0.6%. For the same compound, the “Reverse Transcriptase Activity, Mean” value ([2]; 32 μg/ml) was 130.7, the “Reverse Transcriptase Activity, Sample 1-3” value ([2]; 32 μg/ml) was 124 and 180 and 88.0 and the “Reverse Transcriptase Activity, % virus control” value ([2]; 100 μg/ml) was 0.5%. The “Reverse Transcriptase Activity, Mean” value ([2]; 100 μg/ml) was 122.7, the “Reverse Transcriptase Activity, Sample 1-3” value ([2]; 100 μg/ml) was 132 and 84.0 and 152.0 and the inhibition at 4 µg/mL ([1]; Human immunodeficiency virus 1, at 4 μg/ml, read-out: inhibited viral replication) was 100%.
